The source of these data is patent publication US20140256638A1, “PEPTOID NEUTRALIZING AGENTS” (The Regents of the University of California, priority 2013, published 2014).

The term Kd denotes the free concentration of one partner at which half of the binding sites on the other are occupied at equilibrium, for simple one-to-one binding. The low end stands for higher affinity, the high end for lower affinity.

For data set [1] the following is noted: Coatest heparin in vitro assay; cited from earlier work.
Data set [2] deals with proteases. The settings on record: physiological conditions; cited from earlier work.
Data set [3] is described as follows: Heparin Affinity Chromatography (HAC). The class given is binding. The settings on record: Table 4; heparin affinity column, gradient 0 to 1 M NaCl in pH 7.2, 50 mM sodium phosphate over 60 min, 0.65 mL/min. As for the experimental part:
The relative affinities of the peptoids in Table 2 for heparin were determined by heparin affinity chromatography (“HAC”). Peptoid solutions, typically 0.2 mM, were eluted by gradient elution; mobile phase A consisted of pH 7.2, 50 mM sodium phosphate buffer and mobile phase B consisted of the same buffer but with 1 M NaCl added. The flow rate was 0.65 mL/min and the gradient began with 100% mobile phase A and 0% mobile phase B, and ended at 60 min with 0% mobile phase A and 100% B although most of the peptoid runs were complete within 30 min or less.

Data set [4] can be described thus: Isothermal Titration Calorimetry (ITC) of peptoid-heparin binding. The settings on record: for TΔS: calculated from binding constant and ΔH; for ΔS: calculated from ΔG and ΔH; for ΔG: calculated from ΔG=−RTlnKb. As for the experimental part:
For Table 3, binding constants and other thermodynamic parameters were determined for the chiral 12-mer analogs by ITC. The S12mer data represents 3 trials, and the R12mer represents 2 trials. Values for the parameters Kb, AH and N are obtained by fitting the titration curves. AG is calculated from ΔG=−RTlnKb and ΔS is calculated from […].
Isothermal Titration Calorimetry (“ITC”) was used to determine directly ΔH, the binding constant and stoichiometry, and ΔS was then calculated from the binding constant and ΔH for the binding reaction between heparin and the peptoids produced in this study. In a typical ITC experiment, peptoid in buffer solution was placed in the sample cell and an equivalent quantity of the same buffer solution was placed in the reference cell. Heparin in buffer solution was placed in the titration syringe. Heparin titrant was added to the sample cell in 10 μL aliquots with 210 sec. between aliquots.
FIG. 11 presents the isotherm for the endothermic reaction. The resulting integrated titration curve is given in FIG. 12 for a reaction between 0.20 mM peptoid in the sample cell and 0.25 mM heparin in the titration syringe.

[5] abbreviates: Table 4, ITC, heparin titrated into peptoid in buffer.
Where [6] appears, read: Table 3, ITC, S12mer 3 trials, R12mer 2 trials.

In the case of “Ac-SRGKAKVKAKVKDQTK-NH2 (not fully specified; printed as Ac-SRGKAKVKAKVKDQTK-NH2) [L-HIPAP]”, the neutralizing heparin activity entry in data set [1] was “equally effective”.
Take Ac-SRGKAKVKAKVKDQTK-NH2 [D-HIPAP]: the stability to proteases entry in data set [2] was “more stable than L-HIPAP”.
Regarding Ac-SRGKAKVKAKVKDQTK-NH2 [L-HIPAP], in data set [2], the stability to proteases result is recorded as “more susceptible to degradation by proteases”.
As to H-[N(Arg)-N(Bu)-N(Spe)]2-NH2 [s6merG], the HAC r.t. in data set [3] turned out to be 13.5 ± 2.9 min. Further, in data set [4] (Table 4, ITC), the ΔH is -2.862 ± 0.222 kcal/mol and the TΔS is 2316 ± 32 cal/mol. The substance also yielded a Kd in data set [4] (setting [5]) of 20.6 ± 0.8 µM.
As to H-[N(Arg)-N(Bu)-N(Spe)]3-NH2 [s9merG], in data set [3], the HAC r.t. came out at 20.8 ± 0.8 min. In data set [4] (Table 4, ITC), the ΔH was -1.197 ± 0.071 kcal/mol and the TΔS was 16.6 ± 1.7 cal/mol. In data set [4] (setting [5]), this substance displayed a Kd of 4.76 ± 2.3 µM.
The matching figures for H-[N(Arg)-N(Bu)-N(Spe)]-NH2 [s3merG]: 3.8 ± 0.3 min, -0.6325 ± 0.0085 kcal/mol, 2026.4 ± 159 cal/mol and 140 ± 11 µM.
Turning to H-[N(Arg)-N(Et)-N(Spe)]3-NH2 [s9merEtG], in data set [3], the HAC r.t. came out at 21.5 ± 0.5 min. In data set [4] (Table 4, ITC), the ΔH was -2.176 ± 0.082 kcal/mol and the TΔS is 3159 ± 115 cal/mol. Further, the Kd in data set [4] (setting [5]) came out at 4.3 ± 2.2 µM.
For the substance H-[N(Arg)-N(Pr)-N(Spe)]3-NH2 [s9merPrG], the HAC r.t. in data set [3] amounted to 20.3 ± 0.6 min. Further, in data set [4] (Table 4, ITC), the ΔH is -1.634 ± 0.043 kcal/mol and the TΔS is 4639 ± 36 cal/mol. For the same substance, in data set [4] (setting [5]), the dissociation constant (Kd) was determined as 5.6 ± 1.8 µM.
Turning to H-[N(Cad)-N(Bu)-N(Spe)]3-NH2 [s9merCad], in data set [3], the HAC r.t. stood at 16.3 ± 0.6 min. In data set [4] (Table 4, ITC), the ΔH worked out at 2.381 ± 0.029 kcal/mol and the TΔS was 8989 ± 15 cal/mol. In data set [4] (setting [5]), the affinity, expressed as Kd, was 11.7 ± 0.1 µM.
Substance “H-[N(Cad)G-N(Bu)-N(Spe)]3-NH2 [s9merCadG]” showed an HAC r.t. in data set [3] of 20.1 ± 0.5 min. In addition, in data set [4] (Table 4, ITC), the ΔH was -0.2835 ± 0.027 kcal/mol and the TΔS was 7500 ± 32 cal/mol. In addition, binding in data set [4] (setting [5]) was put at a Kd of 5.5 ± 3.4 µM.
On to H-[N(Lys)-N(Bu)-N(Spe)]3-NH2 [s9merLys], for which the HAC r.t. in data set [3] is reported as 14.6 ± 0.2 min. Also, in data set [4] (Table 4, ITC), the ΔH was 3.305 ± 0.064 kcal/mol and the TΔS is 10,000 ± 54 cal/mole. Besides, the dissociation constant Kd in data set [4] (setting [5]) was 16.4 ± 11 µM.
As to “H-[N(Lys)G-N(Bu)-N(Spe)]3-N2 [s9merLysG]”, in data set [3], the HAC r.t. worked out at 20.6 ± 0.2 min. Besides, in data set [4] (Table 4, ITC), the ΔH is -0.6151 ± 0.135 kcal/mol and the TΔS is 3948 ± 56 cal/mol. Also, the equilibrium dissociation constant (Kd) in data set [4] (setting [5]) came to 5 ± 0.3 µM.
In turn, “H-[N(Orn)-N(All)-N(Spe)]3-NH2 [s9merAll]” yielded an HAC r.t. in data set [3] of 20 ± 2.0 min. In addition, in data set [4] (Table 4, ITC), the ΔH was -0.931 ± 0.074 kcal/mol and the TΔS is 4627 ± 41 cal/mol. In data set [4] (setting [5]), the affinity, expressed as Kd, was 8.3 ± 3.2 µM.
For H-[N(Orn)-N(Bu)-N(Rpe)]4-NH2 [r12mer], the HAC r.t. in data set [3] worked out at 18.5 ± 0.6 min. For the same substance, in data set [4] (setting [6]), the affinity, expressed as Kd, was 7.57 µM and the ΔH was determined as 1.278 kcal/mol. Besides, in data set [4] (Table 3, ITC), the ΔS is 19.01 cal/mole ° C and the ΔG is -6.956 kcal/mol. Besides, in data set [4] (Table 4, ITC), the ΔH came out at 1.278 ± 0.379 kcal/mol and the TΔS is 5664 ± 2.5 cal/mol. For the same substance, binding in data set [4] (setting [5]) was characterised by a dissociation constant (Kd) of 7.6 ± 4.2 µM.
In turn, H-[N(Orn)-N(Bu)-N(Spe)]2-NH2 [s6mer] came in with an HAC r.t. in data set [3] of 9.61 ± 1.1 min. Further, in data set [4] (Table 4, ITC), the ΔH amounted to 0.565 ± 0.064 kcal/mol and the TΔS was 7748 ± 880 cal/mol. This substance also displayed a Kd in data set [4] (setting [5]) of 44 ± 5 µM.
The matching figures for H-[N(Orn)-N(Bu)-N(Spe)]3-NH2 [s9mer]: 14.1 ± 1.2 min, 0.814 ± 0.089 kcal/mol, 7259 ± 45 cal/mol and 18.6 ± 3.2 µM.
The substance H-[N(Orn)-N(Bu)-N(Spe)]4-NH2 [s12merG] registered an HAC r.t. in data set [3] of 29.2 ± 1.0 min. In data set [4] (Table 4, ITC), the ΔH is -0.167 ± 0.038 kcal/mol and the TΔS was 7682 ± 43 cal/mol. The Kd in data set [4] (setting [5]) turned out to be 3.4 ± 0.4 µM.
As for H-[N(Orn)-N(Bu)-N(Spe)]4-NH2 [s12mer], the HAC r.t. in data set [3] is reported as 21.6 ± 0.6 min. In addition, the “relative binding affinity to heparin” value in data set [4] (ITC and HAC results, comparison in words) is reported as “greater binding affinity”. Also, in data set [4] (setting [6]), binding was put at a Kd of 4.11 µM and the ΔH came to 1.733 kcal/mol. Further, in data set [4] (Table 3, ITC), the ΔS is 30.53 cal/mole ° C and the ΔG is -6.309 kcal/mol. In addition, in data set [4] (Table 4, ITC), the ΔH is 1.733 ± 0.047 kcal/mol and the TΔS was 9097 ± 30 cal/mol. Also, the affinity in data set [4] (setting [5]), expressed as Kd, was 4.11 ± 0.6 µM.
For H-[N(Orn)-N(Bu)-N(Spe)]-NH2 [s3mer], in data set [3], the HAC r.t. is 3.0 ± 0.6 min. Also, in data set [4] (Table 4, ITC), the ΔH is 0.3867 ± 0.237 kcal/mol and the TΔS is 5057 ± 35 cal/mol. In data set [4] (setting [5]), the equilibrium dissociation constant (Kd) worked out at 164 ± 32 µM.
H-[N(Orn)-N(Bz)-N(Spe)]3-NH2 [s9merBz] gave an HAC r.t. in data set [3] of 29.3 ± 0.5 min. Besides, in data set [4] (Table 4, ITC), the ΔH was -0.545 ± 0.121 kcal/mol and the TΔS was 2851 ± 1.4 cal/mol. In data set [4] (setting [5]), this substance showed an equilibrium dissociation constant (Kd) of 0.9 ± 0.4 µM.
In the case of H-[N(Orn)-N(Et)-N(Spe)]3-NH2 [s9merEt], the HAC r.t. in data set [3] is on record as 16.5 ± 0.5 min. In data set [4] (Table 4, ITC), the ΔH worked out at 0.8223 ± 0.034 kcal/mol and the TΔS was 5140 ± 37 cal/mol. In data set [4] (setting [5]), this substance registered a dissociation constant (Kd) of 10.9 ± 0.7 µM.
Take H-[N(Orn)-N(Me)-N(Spe)]3-NH2 [s9merMe]: the HAC r.t. in data set [3] is listed as 18.1 ± 0.5 min. Besides, in data set [4] (Table 4, ITC), the ΔH stood at 1.654 ± 0.011 kcal/mol and the TΔS was 3161 ± 76 cal/mol. The equilibrium dissociation constant (Kd) in data set [4] (setting [5]) is 8.3 ± 2 µM.
In turn, “H-[N(Orn)-N(Orn)-N(Spe)]4-NH2 [s9merOrnOrn]” returned an HAC r.t. in data set [3] of 38.5 ± 5.0 min. For the same substance, the “enthalpy of reaction (sign)” value in data set [4] (ITC with heparin) is recorded as “exothermic”. Further, in data set [4] (Table 4, ITC), the ΔH is -5.253 ± 0.105 kcal/mol and the TΔS was 3992 ± 383 cal/mol. For the same substance, in data set [4] (setting [5]), the affinity, expressed as Kd, was 0.14 ± 0.004 µM.
For the substance H-[N(Orn)-N(Pr)-N(Spe)]3-NH2 [s9merPr], in data set [3], the HAC r.t. was 16.5 ± 0.7 min. Further, in data set [4] (Table 4, ITC), the ΔH came out at 3.555 ± 0.056 kcal/mol and the TΔS was 1427 ± 2.6 cal/mol. In addition, binding in data set [4] (setting [5]) was characterised by a dissociation constant (Kd) of 11.2 ± 0.7 µM.
